Measured values published in patent US20200282010A1, “IMMUNOGENIC COMPOSITIONS AND USES THEREFOR” (Epiaxis Therapeutics Pty Ltd, priority 2017, published 2020).

Key:
[1] = tested on: CD8^+ T-cells isolated from melanoma patient's bloods; assay: Immunofluorescence of nuclear PKC-θ and ZEB1 in patient CD8+ T-cells; assay type: cell-based, human; conditions: all patient samples; vehicle or PMA/CI; inhibitor 8 μm; FIG. 3
Protocol: FIG. 3 is a photographic representation depicting a PKC-θ resistance signature in CD8^+ T-cells. A-B) CD8s were isolated from melanoma patient liquid biopsies (CR=complete response, SD=Stable Disease, PD=progression of disease) and were stimulated with PMA/CI and pre-clinically screened with either vehicle control or PKCθi nuclear peptide inhibitor. Samples were fixed and immunofluorescence microscopy was performed on these cells with primary antibodies for ZEB1, PKC-θ, and CD8. Representative images for each dataset are shown. Graph represents the TNFI for PKC-Theta and TNFI for ZEB1 measured using ImageJ to select the nucleus minus background (n=>20 cells/sample). Plot profiles for each cohort for ZEB1 and PKC-θ are also depicted (RED=ZEB1, Green=PKC-θ) with the PCC indicated. Graphs depicting the % inhibition or induction based on protein expression where also plotted for each protein target relative to untreated sample. C-D) CD8s were isolated from melanoma patient liquid biopsies (CR=complete response, PR=partial response, PD=progression of disease) and were stimulated with PMA/CI and pre-clinically screened with either vehicle control or our PKCθi nuclear peptide inhibitor. […] Graph represents the TNFI for TNF-α and TNFI for IFN-γ measured using ImageJ to select the nucleus minus background (n=>20 cells/sample). […]

MCF7 cells = assay: Cell proliferation (WST-1 assay); assay type: cell-based; conditions: FIG. 1E
Excerpt: (§1) FIG. 1 is a graphical, schematic and photographic representation showing that PKC-θ can be targeted for therapeutic intervention. A) Depicts the strength of binding of recombinant purified His6-PKC-θ to increasing concentrations of different subunits and subunit combinations (α2, α2β1, and β1) of the importin α/β heterodimer nuclear transport receptor using an AlphaScreen® binding assay as described in Wagstaff et al. (2011. Journal of Biomolecular Screening 16 (2):192-200). B-C) Depicts protein structure of PKC-θ indicating binding locations for the PKC-θ peptide inhibitor, PKCθi (RKEIDPPFRPKVK), including the nuclear localization sequence (NLS) of PKC-θ. D) The specificity of PKCθi was examined on cells treated with this peptide inhibitor. Cells were screened with primary antibodies to PKC-θ (T538p), PKC-β2, PKC-β1, PKC-α, PKC-ε and PKC-γ. The nuclear to cytoplasmic fluorescence ratio (Fn/c) using the equation: Fn/c=(Fn−Fb)/(Fc−Fb), where Fn is nuclear fluorescence, Fc is cytoplasmic fluorescence, and Fb is background fluorescence was used to determine the impact on nuclear translocation/localization. […] EC^50 of inhibitors calculated using GraphPad PRISM software. F) The PKC-θ kinase activity was measured using the PKC kinase activity kit from ENZO life sciences and recombinant PKC-θ; C27 is an inhibitor of PKC-θ kinase activity, which is disclosed in Jimenez et al. (2013. […]

PKC-α = biological target: T1, PKC-α (Homo sapiens, UniProt P17252); assay: Nuclear localization of PKC-α (Fn/c, immunofluorescence), specificity; assay type: cell-based; conditions: MCF7 breast cancer cell line; FIG. 1D
T1 construct: endogenous in cells; host or cells: MCF7
Excerpt: as §1

PKC-γ = biological target: T2, PKC-γ (Homo sapiens, UniProt P05129); assay: Nuclear localization of PKC-γ (Fn/c, immunofluorescence), specificity; assay type: cell-based; conditions: MCF7 breast cancer cell line; FIG. 1D
T2 construct: endogenous in cells; host or cells: MCF7
Excerpt: as §1

recombinant PKC-θ = recombinant PKC-θ (Homo sapiens, UniProt Q04759); assay: PKC-θ kinase activity (PKC kinase activity kit, ENZO life sciences); assay type: biochemical; conditions: FIG. 1F
Excerpt: as §1

Chain of recombinant PKC-θ (Q04759 whole entry): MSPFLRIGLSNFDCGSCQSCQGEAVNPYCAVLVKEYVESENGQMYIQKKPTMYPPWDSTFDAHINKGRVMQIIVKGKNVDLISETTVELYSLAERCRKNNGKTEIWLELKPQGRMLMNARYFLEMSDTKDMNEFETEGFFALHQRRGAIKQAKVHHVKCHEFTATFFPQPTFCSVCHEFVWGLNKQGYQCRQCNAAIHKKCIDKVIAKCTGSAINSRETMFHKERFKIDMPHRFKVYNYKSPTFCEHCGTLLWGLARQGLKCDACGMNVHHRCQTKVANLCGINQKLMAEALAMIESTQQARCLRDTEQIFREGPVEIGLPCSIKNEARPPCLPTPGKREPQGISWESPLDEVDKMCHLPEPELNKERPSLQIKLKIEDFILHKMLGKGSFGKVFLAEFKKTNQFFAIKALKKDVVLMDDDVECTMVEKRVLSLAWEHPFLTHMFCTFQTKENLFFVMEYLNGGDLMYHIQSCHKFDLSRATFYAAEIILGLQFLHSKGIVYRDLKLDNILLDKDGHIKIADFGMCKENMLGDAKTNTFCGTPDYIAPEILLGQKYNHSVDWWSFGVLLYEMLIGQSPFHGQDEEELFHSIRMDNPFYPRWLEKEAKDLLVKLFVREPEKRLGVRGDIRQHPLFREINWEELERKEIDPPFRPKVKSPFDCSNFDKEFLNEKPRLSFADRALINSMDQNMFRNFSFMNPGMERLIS

nuclear localization of PKC-α (PKC-α): no effect
nuclear localization of PKC-γ (PKC-γ): no effect
PKC-θ catalytic activity (recombinant PKC-θ): without impacting
Sequence: RKEIDPPFRPKVK [PKCθi]
expression of ZEB1 [1]: strikingly abrogated
expression of nuclear PKC-θ [1]: strikingly abrogated
proliferation of MCF7 cells (MCF7 cells): significantly inhibit
